Consider 4 compounds from patent USRE47885E1, “Use of cannabidiol prodrugs in pharmaceutical compositions” (Zynerba Pharmaceuticals, Inc., priority 2009, dated 2020).

A short description of data set [1]: Chemical stability of ALL00179 in 100% ddH2O donor solution. The format is physicochemical. Particulars: for purity level after 72 hr: ALL00179 after 72 hr in ddH7O at RT; for initial purity (composition of ALL00179 sample): ALL00179 for 100% ddH2O donor solution. The method, then: ALL00179 was placed in 100% ddH2O donor solution to check chemical stability. The initial purity of ALL00179 was 94.7% ALL00179, 5.3% ALL00180, and 0% CBD. After 72 hr in ddH7O at RT, the purity level was determined to be 86.8% ALL00179, 13.2% ALL00180 and 0% CBD.

Data set [2] can be described thus: In vitro diffusion study through microneedle-treated full thickness Yucatan pig skin (flow-through diffusion cell). The format is in vitro ADME. Particulars: ALL00179 100% ddH2O donor solution, end of 48 h diffusion study. From the text:
The purpose of the diffusion study was to determine whether microneedle (MN) treated skin would allow the rapid permeation of a water-soluble prodrug of CBD (ALL00179) compared to CBD.
Briefly, full thickness Yucatan pig (YP) skin was used to perform the microneedle studies. The average thickness of the YP skin was approximately 1.0±0.1 mm. A PermeGear flow-through (In-Line, Hellertown, Pa.) diffusion cell system was used for the skin permeation studies. One hundred microneedle insertions were made into the skin before mounting in the flow-through diffusion cell by treating the skin 20 times with an array containing 5 microneedles. Each cell was charged with 250 μl of either 318 mM CBD (n=4) or ALL00179 (n=5) and occluded with rubber stoppers. Ten percent ethanol in water was used as a receiver solution. Samples were collected at six-hour intervals for a total of 48 hours. (See FIG. 1 for the permeation profile.)

A short description of data set [3]: Previous studies: permeation through intact skin (non-MN treated, 100% ddH2O donor solution). The format is in vitro ADME. As for the experimental part: Likewise, short lag times were observed throughout the study for the ALL00179-treated skin. […] In this study, the total amount of CBD delivered from a 25 mg ALL00179-containing donor solution was 0.2±0.1 mg total CBD equivalents in the skin and 1.0±0.2 mg total CBD equivalents in the receiver solution after 48 hr. This accounts for approximately 4.8% of the total ALL00179 in the donor solution.

Data set [4] is classed as in vitro ADME. The settings on record: ALL00179 added to human plasma; for Percent Prodrug and CBD at time (min) 0*: 0 min (approximately 1 minute of mixing and withdrawal); for Percent Prodrug and CBD at time (min) 5: 5 min; for Percent Prodrug and CBD at time (min) 10: 10 min; for Percent Prodrug and CBD at time (min) 20: 20 min; for Percent Prodrug and CBD at time (min) 30: 30 min; for Percent Prodrug and CBD at time (min) 60: 60 min; for Percent Prodrug and CBD at time (min) 120: 120 min. As for the experimental part:
Stability of the prodrug in human plasma was performed to monitor the conversion of ALL00179 to the monosubstituted form, ALL00180, and CBD. The molecular structure of ALL00180 and CBD are shown below: […]

For data set [5] the following is noted: cited from earlier work.
A short description of data set [6]: Permeation from an optimized gel system of cannabidiol through intact dermatomed human skin. The format is in vitro ADME. The settings on record: optimized gel system of cannabidiol (2.5% w/w), dosed every 12 hr. From the text:
As a comparison, permeation from an optimized gel system of cannabidiol (2.5% w/w) through intact dermatomed human skin, dosed every 12 hr, gave a flux of 5.2 nmol/cm^2/h. The total CBD flux from ALLL00179 after MN treatment of full thickness Yucatan pig skin was 63.2±11.4 nmol/cm^2/h, resulting in a 12.2 fold enhancement of flux.

Setting [7] is: used in conjunction with microneedles.

SMILES strings stand for the structures.

Consider `C=C(C)[C@@H]1CCC(C)=C[C@H]1c1c(OC(=O)C[N+](C)(C)C)cc(CCCCC)cc1OC(=O)C[N+](C)(C)C.[Cl-].[Cl-]` [ALL00179], for which, in data set [1], the “purity level after 72 hr” value is given as 86.8% and the “initial purity (composition of ALL00179 sample)” value (“initial purity” below) stood at 94.7%. The “composition of the donor solutions at the end of the study” value (“composition of the donor solutions” below) in data set [2] amounted to 84.3±2.6%. For the same compound, the “flux through intact skin” value in data set [3] was “no flux”. In data set [4], the “Percent Prodrug and CBD at time (min) 0*” value is recorded as 9.2%; the “Percent Prodrug and CBD at time (min) 5” value is 3.0%; the “Percent Prodrug and CBD at time (min) 10” value came out at 0.0%; the “Percent Prodrug and CBD at time (min) 20” value is recorded as 0.0%. In addition, in data set [4], the “Percent Prodrug and CBD at time (min) 30” value is 0.0%; the “Percent Prodrug and CBD at time (min) 60” value is given as 0.0%; the “Percent Prodrug and CBD at time (min) 120” value amounted to 0.0%.

Turning to `C=C(C)[C@@H]1CCC(C)=C[C@H]1c1c(O)cc(CCCCC)cc1OC(=O)C[N+](C)(C)C` [ALL00180], in data set [1], the “purity level after 72 hr” value is given as 13.2% and the “initial purity” value worked out at 5.3%. For the same compound, the “composition of the donor solutions” value in data set [2] came out at 15.7±2.6%. In data set [4], the “Percent Prodrug and CBD at time (min) 0*” value worked out at 86.1%; the “Percent Prodrug and CBD at time (min) 5” value is listed as 66.8%; the “Percent Prodrug and CBD at time (min) 10” value came to 44.9%; the “Percent Prodrug and CBD at time (min) 20” value came out at 22.9%. In data set [4], the “Percent Prodrug and CBD at time (min) 30” value was 10.6%; the “Percent Prodrug and CBD at time (min) 60” value was 2.4%; the “Percent Prodrug and CBD at time (min) 120” value is 0.0%.

In the case of `O=C1CC[C@@]2(O)[C@H]3Cc4ccc(O)c5c4[C@@]2(CCN3CC2CC2)[C@H]1O5` [naltrexone], in data set [5] (16% naltrexone hydrochloride gel, 6 healthy human volunteers, microneedle pretreatment), the naltrexone levels is 2.5 ± 1.1 ng/mL. Moreover, in data set [5] (setting [7]), the “duration of steady state naltrexone concentrations” value is 48 h and the “time to steady state naltrexone concentrations” value is “within two hours”.

`C=C(C)[C@@H]1CCC(C)=C[C@H]1c1c(O)cc(CCCCC)cc1O` [Cannabidiol] registered a flux in data set [6] of 5.2 nmol/cm^2/h. Further, in data set [1], the “purity level after 72 hr” value came out at 0% and the “initial purity” value is 0%. Also, the “composition of the donor solutions” value in data set [2] was 0%. For the same compound, in data set [3], the “drug detected in the skin” value is recorded as “none” and the “flux through intact skin” value was “no flux”. Besides, in data set [4], the “Percent Prodrug and CBD at time (min) 0*” value amounted to 4.7%; the “Percent Prodrug and CBD at time (min) 5” value amounted to 30.2%; the “Percent Prodrug and CBD at time (min) 10” value is given as 55.1%; the “Percent Prodrug and CBD at time (min) 20” value amounted to 77.1%. Also, in data set [4], the “Percent Prodrug and CBD at time (min) 30” value turned out to be 89.4%; the “Percent Prodrug and CBD at time (min) 60” value was determined as 97.6%; the “Percent Prodrug and CBD at time (min) 120” value came to 100%.
